≈ marks a conversion by molar mass, not a printed value.
Experiments:
[1] = tested on: Candida albicans (ATCC 24433); experiment: microbroth dilution assay of human pathogenic yeasts (NCCLS M27A, Alamar Blue); type: cell-based; settings: 24 to 48 hours
Procedure: (§1) Microbroth dilution assays of human pathogenic yeasts were performed as described in the NCCLS M27A (NCCLS, 1997) with the addition of Alamar Blue (Trek Diagnostics Systems, Inc., Westlake, Ohio) as a colorimetric indicator of viability (Espinel-Ingroff et al., 1999, J. Clin. Microbiol. 37: 591-595). All isolates were obtained from the ATCC. The assays were performed in sterile 96 well plates. The total volume per well was 100 μl. Two wells were inoculated for a given concentration. The MIC was defined as that concentration of compound resulting in no visible growth of the test organism after 24 to 48 hours of incubation with the exception of Cryptococcus neoformans which was read at 72 hours. Flucytosine was included as a control antifungal compound.

[2] = tested on: Candida albicans (ATCC 90028); experiment: as above; type: cell-based; settings: 24 to 48 hours
Procedure: as §1

[3] = tested on: Candida krusei (ATCC 6258); experiment: as above; type: cell-based; settings: 24 to 48 hours
Procedure: as §1

[4] = tested on: Candida parapsilosis (ATCC 22019); experiment: as above; type: cell-based; settings: 24 to 48 hours
Procedure: as §1

[5] = tested on: Candida parapsilosis (ATCC 90018); experiment: as above; type: cell-based; settings: 24 to 48 hours
Procedure: as §1

[6] = tested on: Candida tropicalis (ATCC 750); experiment: as above; type: cell-based; settings: 24 to 48 hours
Procedure: as §1

[7] = tested on: Cryptococcus neoformans (ATCC 32045); experiment: as above; type: cell-based; settings: read at 72 hours
Procedure: as §1

[8] = tested on: Saccharomyces cerevisiae (ATCC 9763); experiment: as above; type: cell-based; settings: 24 to 48 hours
Procedure: as §1

[9] = tested on: Plasmodium falciparum strain CSC-1 (Honduras); experiment: antimalarial assay against Plasmodium falciparum (3H-phenylalanine uptake); type: cell-based; settings: read-out: IC50 against Plasmodium falciparum
Procedure: All cultures were maintained in a microaerophilic environment containing 1% oxygen/5% CO2 with the balance being nitrogen. […] Control cultures contained the same quantity of DMSO or water as that used in the experimental trials. Data were reported as IC50 values.
Parasite cultures, adjusted to 0.1-0.5% parasitemia by addition of freshly washed human erythrocytes, were pipetted into 96 well culture plates by adding 10 μl of a 50% cell suspension to each well to give a final volume of 5 μl of packed erythrocytes per well. The test compounds in RPMI 1640 were added at 95 μl per well to four wells per each concentration of test compound. Quadruplicate control wells were treated similarly with DMSO or water added without the test compounds present. The cultures were gassed and exposed to radiolabeled ^3[H]-phenylalanine (1 microcurie per well) for the final 24 hour of treatment. Cultures were monitored for bacterial contamination and for parasite viability by Giemsa staining of thin films. Ultimately, the cells were harvested onto glass-fiber filters, followed by liquid scintillation counting. The IC50 for each compound was determined by linear regression analysis using 50% of the control counts as the regression point. The experiment was repeated three times, the data averaged, and the standard deviation of the mean determined.

[10] = tested on: human cancer cell line BT20 (breast epithelial cancer); experiment: CellTiter 96 cell proliferation assay, BT20; type: cell-based; settings: BT-20, 50% viability, 96 hours incubation
Procedure: (§2) The BT20 cells were grown in the medium recommended by ATCC and were seeded into 96 well clear flat bottom plates at 3000 cells per well in 100 μl. The primary mammary cells were cultured as recommended by the manufacturer in mammary epithelial cell growth media (MEGM®) and were seeded at 3200 cells per well in 100 μl.
(§3) Each plate also contained some wells with cells plus medium only and some wells with medium only as controls. After addition of the compounds, the plates were incubated at 37° C. for 48 hours or 96 hours for the HMEC and BT20 cell lines, respectively.
(§4) The proliferation assay was performed using the manufacturer's protocols; a 20:1 solution of MTS and PMS was mixed and 10 to 40 μl was added to each well depending on the total volume in the wells. The plates were incubated at 37° C. for one to four hours, and the OD490 was determined. The OD reading of all wells was corrected for background by subtracting the reading of wells containing medium only. The wells containing cells only were used as a control for 100% viability.

[11] = in vitro; settings: human, primary mammary epithelial cells (HMEC)
Procedure: as §2, §3, §4

With Nc1[nH]c(=O)ncc1F [Flucytosine] as the compound, how does the MIC [1] read?
The MIC was 1.0 μml^−1.

And the MIC [2]?
The MIC was 0.5 μml^−1.

And the MIC [3]?
Its MIC is 16 μml^−1.

And the MIC [4]?
The MIC was 0.5 μml^−1.

What about the MIC [5] of the same compound?
Its MIC is 0.12 μml^−1.

What about the MIC [6] of the same compound?
The MIC was “<=0.06 μml^−1”.

And the MIC [7]?
Its MIC is 8 μml^−1.

What about the MIC [8] of the same compound?
Its MIC is “<=0.06 μml^−1”.

Which IC50 [9] does the source give for CCN(CC)CCCC(C)Nc1ccnc2cc(Cl)ccc12 (centres unmarked) [chloroquine] here?
The IC50 was 7 ng/mL (≈ 0.0219 µM).

Which IC50 [10] does the source give for CC(=O)O[C@H]1C(=O)[C@@]2(C)[C@H]([C@H](OC(=O)c3ccccc3)[C@]3(O)C[C@H](OC(=O)[C@H](O)[C@@H](NC(=O)c4ccccc4)c4ccccc4)C(C)=C1C3(C)C)[C@]1(OC(C)=O)CO[C@@H]1C[C@@H]2O [taxol] here?
The IC50 was 9 ng/mL (≈ 0.0105 µM).

What about the IC50 at 48 h [11] of the same compound?
The IC50 at 48 h was 25000 to 30000 ng/mL (≈ 29.3 to 35.1 µM).

Reference: patent US7387888B2, “Coronamycins” (priority 2004, dated 2008)
